Test results from patent US20060122153A1, “Antineoplastic ether lipid compounds with modifications at the sn-2 carbon” (priority 2003, published 2006).

How the values were obtained:
whole human blood = assay: Hemolysis assay with whole human blood; conditions: whole human blood; for H10: concentration producing 10% hemolysis; for H50: concentration producing 50% hemolysis
Method: Venous blood was collected in 10 mL Vacutainer tubes containing EDTA using a 21G needle or larger.
Stock solutions of 20 mM test sample in phosphate buffered saline (PBS) were prepared as follows:
Then 270 uL of whole blood was aliquotted in duplicate mini test tubes using positive displacement pipet. Next, 30 uL of each working stock solution, in duplicate, was added to the whole blood. Next, 30 uL of PBS was added for background control. The samples were capped or sealed with Parafilm and gently mixed. The blood was incubated at 37° C. in gentle rotating water bath for 30 minutes. Final concentration of test sample was 10% of working stock solution.
Total hemolysis samples of 1,% and 10% whole blood samples in deionized water were prepared as follows:
The samples were freeze thawed 3× in liquid nitrogen then wafer bath. The samples were then centrifuged 10 minutes at 1500 RPM. Next, 100 uL of supernatant was transferred to a cuvette and 1 mL deionized water was added. The absorbance was read at 550 nm vs. water blank.
H10 and H50 were calculated by graphing Percent Total Hemolysis vs. Test Sample Concentration. The Percent Total Henolysis=(average o.d of test sample)/(average o.d. of total hemolysis sample)×100

HCC-2998 = assay: NCI growth inhibition screen, colon panel; type: cell-based, human; set-up: key: = means equivalent activity; + means that it appears to be significantly better (i.e., by ˜2x); < means it appears to be less active than ET18OCH3 (˜2x); a combination like =/+ or </+ means that activity is dependent upon the isomer; a combination like =/+ or </+ means that activity is dependent upon the isomer; conditions: HCC-2998, Colon; from GI50s
Method: (§1) Candidates deemed suitable for in vivo testing were then synthesized in large scale quantities and some of this material was sent to the NCI's Developmental Therapeutics Program for a battery of growth inhibitory studies against various human tumor cell lines (60 cell lines, 9 different panels). The remainder of the material was used to assess in vivo efficacy using murine tumor models. Additionally, studies were conducted on the lead candidates to discern mechanism of action with particular emphasis on these agents apoptotic ability as measured by caspase 3 activity. The details (materials and methods) for these various assays are described further in the following discussion.
(§2) Ten compounds were also sent to NCI's Drug Discovery Program for screening against numerous human tumor cell lines (9 panels total: renal ovarian, colon, CNS, non-small cell lung, leukemia, breast, melanoma, and prostate). The data are shown in FIGS. 2a-i which also include data regarding D- and L-ET-18-OCH3 (listed as L-EL and D-EL in the figures). Upon examining the data, one is struck by how 1R and 1a′S standout in comparison to the other compounds, especially for the renal, ovarian, colon, and CNS panels.

KM12 = assay: NCI growth inhibition screen, colon panel; type: cell-based, human; set-up: key: = means equivalent activity; + means that it appears to be significantly better (i.e., by ˜2x); < means it appears to be less active than ET18OCH3 (˜2x); a combination like =/+ or </+ means that activity is dependent upon the isomer; a combination like =/+ or </+ means that activity is dependent upon the isomer; conditions: from GI50s
Method: as §1, §2

SF-268 = assay: NCI growth inhibition screen, CNS panel; type: cell-based, human; set-up: key: = means equivalent activity; + means that it appears to be significantly better (i.e., by ˜2x); < means it appears to be less active than ET18OCH3 (˜2x); a combination like =/+ or </+ means that activity is dependent upon the isomer; a combination like =/+ or </+ means that activity is dependent upon the isomer; conditions: SF-268, CNS; from GI50s
Method: as §1, §2

SF-295 = assay: NCI growth inhibition screen, CNS panel; type: cell-based, human; set-up: key: = means equivalent activity; + means that it appears to be significantly better (i.e., by ˜2x); < means it appears to be less active than ET18OCH3 (˜2x); a combination like =/+ or </+ means that activity is dependent upon the isomer; a combination like =/+ or </+ means that activity is dependent upon the isomer; conditions: SF-295, CNS; from GI50s
Method: as §1, §2

SF-539 = assay: NCI growth inhibition screen, CNS panel; type: cell-based, human; set-up: key: = means equivalent activity; + means that it appears to be significantly better (i.e., by ˜2x); < means it appears to be less active than ET18OCH3 (˜2x); a combination like =/+ or </+ means that activity is dependent upon the isomer; a combination like =/+ or </+ means that activity is dependent upon the isomer; conditions: SF-539, CNS; from GI50s
Method: as §1, §2

SNB-19 = assay: NCI growth inhibition screen, CNS panel; type: cell-based, human; set-up: key: = means equivalent activity; + means that it appears to be significantly better (i.e., by ˜2x); < means it appears to be less active than ET18OCH3 (˜2x); a combination like =/+ or </+ means that activity is dependent upon the isomer; a combination like =/+ or </+ means that activity is dependent upon the isomer; conditions: SNB-19, CNS; from GI50s
Method: as §1, §2

U-251 = assay: NCI growth inhibition screen, CNS panel; type: cell-based, human; set-up: key: = means equivalent activity; + means that it appears to be significantly better (i.e., by ˜2x); < means it appears to be less active than ET18OCH3 (˜2x); a combination like =/+ or </+ means that activity is dependent upon the isomer; a combination like =/+ or </+ means that activity is dependent upon the isomer; conditions: U-251, CNS; from GI50s
Method: as §1, §2

NCI-H226 = assay: NCI growth inhibition screen, non-small cell lung panel; type: cell-based, human; set-up: key to Performance as compared to ET-18-O—CH3: = means equivalent activity; + means that it appears to be significantly better (i.e., by ˜2x); < means it appears to be less active than ET18OCH3 (˜2x); a combination like =/+ or </+ means that activity is dependent upon the isomer; a combination like =/+ or </+ means that activity is dependent upon the isomer; conditions: for Performance as compared to ET-18-O—CH3: NCI-H226, NS cell lung, from GI50s; for activity compared to ET-18-OCH3 (in words): NCI-H226 cell line, NCI screen
Method: as §1, §2

BT-549 = assay: NCI growth inhibition screen, breast panel; type: cell-based, human; set-up: key to Performance as compared to ET-18-O—CH3: = means equivalent activity; + means that it appears to be significantly better (i.e., by ˜2x); < means it appears to be less active than ET18OCH3 (˜2x); a combination like =/+ or </+ means that activity is dependent upon the isomer; a combination like =/+ or </+ means that activity is dependent upon the isomer; conditions: for Performance as compared to ET-18-O—CH3: BT-549, Breast, from GI50s; for activity compared to ET-18-OCH3 (in words): BT-549 cell line, NCI screen
Method: as §1, §2

For CCCCCCCCCCCCCCCCCCOC[C@@H](COP(=O)([O-])OCC[N+](C)(C)C)OS(C)(=O)=O [1a′S], the H10 (whole human blood) was 800 µM, the H50 (whole human blood) was >2000 µM and the “Performance as compared to ET-18-O—CH3” value (HCC-2998) was 128. For the same molecule, the “Performance as compared to ET-18-O—CH3” value (KM12) was 0, the “Performance as compared to ET-18-O—CH3” value (SF-268) was 0 and the “Performance as compared to ET-18-O—CH3” value (SF-295) was 0. For the same molecule, the “Performance as compared to ET-18-O—CH3” value (SF-539) was 8192, the “Performance as compared to ET-18-O—CH3” value (SNB-19) was 0 and the “Performance as compared to ET-18-O—CH3” value (U-251) was “=/+”. For the same molecule, the “Performance as compared to ET-18-O—CH3” value (NCI-H226) was 32, the “activity compared to ET-18-OCH3 (in words)” value (NCI-H226) was “significantly better than ET-18-OCH3” and the “Performance as compared to ET-18-O—CH3” value (BT-549) was 0. For the same molecule, the “activity compared to ET-18-OCH3 (in words)” value (BT-549) was “more active than ET-18-OCH3”.

CCCCCCCCCCCCCCCCCCOCC(COP(=O)([O-])OCC[N+](C)(C)C)OS(C)(=O)=O (centres unmarked) [Compound 1aR] was tested, and the H10 (whole human blood) was 1000 µM, the H50 (whole human blood) was >2000 µM and the “Performance as compared to ET-18-O—CH3” value (HCC-2998) was “+”. The “Performance as compared to ET-18-O—CH3” value (KM12) was “=”, the “Performance as compared to ET-18-O—CH3” value (SF-268) was “=” and the “Performance as compared to ET-18-O—CH3” value (SF-295) was “=”. The “Performance as compared to ET-18-O—CH3” value (SF-539) was “+”, the “Performance as compared to ET-18-O—CH3” value (SNB-19) was “=” and the “Performance as compared to ET-18-O—CH3” value (U-251) was “+”. The “Performance as compared to ET-18-O—CH3” value (NCI-H226) was “+”, the “activity compared to ET-18-OCH3 (in words)” value (NCI-H226) was “significantly better than ET-18-OCH3” and the “Performance as compared to ET-18-O—CH3” value (BT-549) was “+”. The “activity compared to ET-18-OCH3 (in words)” value (BT-549) was “more active than ET-18-OCH3”.
